Inconclusive results and toxic doses are left out. The calls were made as follows: active = survival T/C of 150% or more; inactive = T/C below 125% in these data.
System: CD2F1 mice, L1210 leukemia ip, survival T/C
Experiment: NCI In Vivo Anticancer Drug Screen. Data for tumor model L1210 Leukemia (intraperitoneal) in CD2F1 (CDF1) mice
Details: higher = longer survival
Procedure, shortened: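 Read-out first: treated-group measurement over vehicle-control measurement, expressed as a ratio. Animals bore a transplanted tumor line and were dosed with compound or vehicle.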

[1] = endpoint: mean survival time, dose: 50.0 mg/kg/injection, schedule: Q01DX009 (ip), vehicle: saline with Tween-80
[2] = endpoint: mean survival time, dose: 100.0 mg/kg/injection, schedule: Q01DX009 (ip), vehicle: saline with Tween-80
[3] = endpoint: mean survival time, dose: 200.0 mg/kg/injection, schedule: Q01DX009 (ip), vehicle: saline with Tween-80
[4] = endpoint: mean survival time, dose: 12.5 mg/kg/injection, schedule: Q01DX009 (ip), vehicle: saline with Tween-80
[5] = endpoint: mean survival time, dose: 25.0 mg/kg/injection, schedule: Q01DX009 (ip), vehicle: saline with Tween-80
[6] = endpoint: mean survival time, dose: 400.0 mg/kg/injection, schedule: Q01DX009 (ip), vehicle: saline with Tween-80
[7] = endpoint: mean survival time, dose: 100.0 mg/kg/injection, schedule: Q04DX003 (ip), vehicle: saline with Tween-80
[8] = endpoint: mean survival time, dose: 200.0 mg/kg/injection, schedule: Q04DX003 (ip), vehicle: saline with Tween-80

Measured: T/C

O=c1n(CCCl)c(=O)n(CCCl)c(=O)n1CCCl
inactive: [1] 101 % of control | [2] 100 % of control | [3] 101 % of control

O=C(Sc1nc2ccccc2s1)c1ccccc1
inactive: endpoint: mean survival time, dose: 100.0 mg/kg/injection, schedule: Q01DX001 (ip), vehicle: saline 95 % of control | endpoint: mean survival time, dose: 200.0 mg/kg/injection, schedule: Q01DX001 (ip), vehicle: saline 97 % of control | endpoint: mean survival time, dose: 400.0 mg/kg/injection, schedule: Q01DX001 (ip), vehicle: saline 115 % of control

O=C1CC[C@@H]2CCCC[C@@H]2C1
inactive: [4] 96 % of control | [5] 92 % of control | [1] 98 % of control | endpoint: mean survival time, dose: 50.0 mg/kg/injection, schedule: Q04DX003 (ip), vehicle: saline with Tween-80 98 % of control

CC1=NN(c2ccc([N+](=O)[O-])cc2)C(=O)C1[N+](=O)[O-] (stereo not given) (tested in a mixture with another compound)
inactive: endpoint: mean survival time, dose: 75.0 mg/kg/injection, schedule: Q01DX001 (ip), vehicle: other 92 % of control | endpoint: mean survival time, dose: 100.0 mg/kg/injection, schedule: Q01DX001 (ip), vehicle: saline with Tween-80 91 % of control | endpoint: mean survival time, dose: 150.0 mg/kg/injection, schedule: Q01DX001 (ip), vehicle: other 104 % of control | endpoint: mean survival time, dose: 200.0 mg/kg/injection, schedule: Q01DX001 (ip), vehicle: saline with Tween-80 97 % of control

CC(=O)NCC(C)OC(C)=O (stereo not given)
inactive: endpoint: mean survival time, dose: 100.0 mg/kg/injection, schedule: Q04DX003 (ip), vehicle: saline 101 % of control | endpoint: mean survival time, dose: 200.0 mg/kg/injection, schedule: Q04DX003 (ip), vehicle: saline 97 % of control | endpoint: mean survival time, dose: 400.0 mg/kg/injection, schedule: Q04DX003 (ip), vehicle: saline 98 % of control

CC(C)c1nn[nH]n1
inactive: endpoint: median survival time, dose: 50.0 mg/kg/injection, schedule: Q01DX009 (ip), vehicle: saline + alcohol 93 % of control | endpoint: median survival time, dose: 100.0 mg/kg/injection, schedule: Q01DX009 (ip), vehicle: saline + alcohol 91 % of control | endpoint: median survival time, dose: 200.0 mg/kg/injection, schedule: Q01DX009 (ip), vehicle: saline + alcohol 100 % of control | endpoint: median survival time, dose: 400.0 mg/kg/injection, schedule: Q01DX009 (ip), vehicle: saline + alcohol 93 % of control

Cc1[nH]c2ccccc2c1C(C)(Cc1cc2ccccc2[nH]1)c1ccncc1 (stereo not given)
inactive: [2] 91 % of control | [3] 100 % of control | [6] 91 % of control

CC[C@H]1CN2CCc3cc(OC)c(OC)cc3[C@@H]2C[C@@H]1C[C@@H]1c2cc(OC)c(OC)cc2CCN1N=O
inactive: endpoint: mean survival time, dose: 12.5 mg/kg/injection, schedule: Q01DX009 (ip), vehicle: saline 104 % of control | endpoint: mean survival time, dose: 25.0 mg/kg/injection, schedule: Q01DX009 (ip), vehicle: saline 104 % of control | endpoint: mean survival time, dose: 25.0 mg/kg/injection, schedule: Q04DX003 (ip), vehicle: saline 100 % of control | endpoint: mean survival time, dose: 50.0 mg/kg/injection, schedule: Q01DX009 (ip), vehicle: saline 107 % of control | endpoint: mean survival time, dose: 50.0 mg/kg/injection, schedule: Q04DX003 (ip), vehicle: saline 95 % of control

C=CCc1cc(CNCC(O)c2ccccc2)c(O)c(OC)c1 (stereo not given)
inactive: endpoint: mean survival time, dose: 25.0 mg/kg/injection, schedule: Q01DX009 (ip), vehicle: Klucel (hydroxypropylcellulose) (HPC) 89 % of control | endpoint: mean survival time, dose: 50.0 mg/kg/injection, schedule: Q01DX009 (ip), vehicle: Klucel (hydroxypropylcellulose) (HPC) 112 % of control

CNC(=O)NNC(=O)c1ccccc1Cl
inactive: [2] 88 % of control | [3] 108 % of control | [6] 98 % of control

CC(C)c1ccc2ccccc2c1
inactive: [7] 91 % of control | [8] 87 % of control | endpoint: mean survival time, dose: 400.0 mg/kg/injection, schedule: Q04DX003 (ip), vehicle: saline with Tween-80 86 % of control

CCOC(=O)COC(CN)C(Cl)(Cl)Cl (stereo not given)
inactive: [7] 101 % of control | [8] 97 % of control

O=C(CC(c1ccc(Cl)cc1)P(=O)(c1ccccc1)c1ccccc1)c1ccccc1 (stereo not given)
inactive: [2] 90 % of control | [3] 98 % of control | [6] 97 % of control

c1cnc2c(c1)ccc1ncccc12
inactive: [4] 91 % of control | [5] 109 % of control | [1] 96 % of control
